What was measured:
Test in all cases: Radiolabel SAMS kinase assay, GST-AMPK from HEK293T/17 cells immobilised on glutathione-Sepharose
Assay type in all cases: biochemical
human GST-AMPK α2β2γ1 = target: T1, human GST-AMPK α2β2γ1 (Homo sapiens, UniProt O43741+P54646); settings: for Max. fold activation: immobilised α2β2γ1; for EC50: immobilised α2β2γ1, 0–30 µM activator
T1 construct: triply transfected with full-length AMPK α1 or α2 (NH2-terminal GST fusion, pDEST27 vector); full-length AMPK α1 or α2 (NH2-terminal GST fusion, pDEST27 vector), β1 or β2 (COOH-terminal FLAG fusion, pcDNA3.1 vector); FLAG (C); made in house; host or cells: HEK293T/17 cells, transient triple transfection

human GST-AMPK α2β1γ1 = target: T2, human GST-AMPK α2β1γ1 (Homo sapiens, UniProt P54646+Q9Y478); settings: for Max. fold activation: immobilised α2β1γ1; for EC50: immobilised α2β1γ1, 0–30 µM activator
T2 construct: triply transfected with full-length AMPK α1 or α2 (NH2-terminal GST fusion, pDEST27 vector); full-length AMPK α1 or α2 (NH2-terminal GST fusion, pDEST27 vector), β1 or β2 (COOH-terminal FLAG fusion, pcDNA3.1 vector); FLAG (C); made in house; host or cells: HEK293T/17 cells, transient triple transfection

human GST-AMPK α1β2γ1 = target: T3, human GST-AMPK α1β2γ1 (Homo sapiens, UniProt O43741+Q13131); settings: for Max. fold activation: immobilised α1β2γ1; for EC50: immobilised α1β2γ1, 0–30 µM activator
T3 construct: triply transfected with full-length AMPK α1 or α2 (NH2-terminal GST fusion, pDEST27 vector); full-length AMPK α1 or α2 (NH2-terminal GST fusion, pDEST27 vector), β1 or β2 (COOH-terminal FLAG fusion, pcDNA3.1 vector); FLAG (C); made in house; host or cells: HEK293T/17 cells, transient triple transfection

human GST-AMPK α1β1γ1 = target: T4, human GST-AMPK α1β1γ1 (Homo sapiens, UniProt Q13131+Q9Y478); settings: for Max. fold activation: immobilised α1β1γ1; for EC50: immobilised α1β1γ1, 0–30 µM activator
T4 construct: triply transfected with full-length AMPK α1 or α2 (NH2-terminal GST fusion, pDEST27 vector); full-length AMPK α1 or α2 (NH2-terminal GST fusion, pDEST27 vector), β1 or β2 (COOH-terminal FLAG fusion, pcDNA3.1 vector); FLAG (C); made in house; host or cells: HEK293T/17 cells, transient triple transfection
Excerpt: We generated a series of compounds to investigate whether modification of the SC4 2-hydroxybiphenyl LHS fragment affects isoform selectivity, some of which (MSG008-MSG011) are presented in Table 1. We also synthesised compound MSG012 (example I-3-54 [32]), which was reported to activate α2β2γ1 with ∼100-fold greater potency compared with α1β1γ1. MSG012 differs from SC4 by substitution of the 2-hydroxyphenyl LHS fragment with 3-cyclohexen-4-yl-1-carboxylic acid, and 2-methylbenzoic acid RHS fragment with 1-hydroxy-N,N-dimethylcyclohexan-4-yl-1-carboxamide. Our initial screen involved measuring the activity of recombinant human GST-AMPK complexes expressed in HEK293T/17 cells and immobilised on glutathione-Sepharose (Supplementary Figure S1). Enzyme activity was measured by radiolabelling the synthetic SAMS peptide substrate in the absence or presence of 1 µM compound. Consistent with our previous characterisation, SC4 activated α1β1γ1, α2β1γ1 and α2β2γ1 >2.3-fold, and weakly activated α1β2γ1 1.3-fold (Figure 1A). […] The γ isoform had little influence on AMPK activation by MSG011 as most γ2 and γ3 complexes were activated >2.2-fold at 1 µM, with α1β2γ2 being the only exception (1.6-fold activation). […] Accordingly, MSG010, MSG011 and MSG012 can be classified as pan AMPK activators.
Adherent HEK293T/17 cells at ∼50% confluency were triply transfected with full-length AMPK α1 or α2 (NH2-terminal GST fusion, pDEST27 vector), β1 or β2 (COOH-terminal FLAG fusion, pcDNA3.1 vector), and γ1, γ2 or γ3 (NH2-terminal HA fusion, pMT2 vector) in the presence of FuGENE HD transfection reagent (Promega) as per the manufacturers protocol. Cells were harvested 48 hours post-transfection by first gently washing in ice cold phosphate buffered saline (PBS; Sigma–Aldrich), then scraping in ice cold lysis buffer (50 mM TRIS pH 7.5, 150 mM NaCl, 10% (v/v) glycerol, 50 mM NaF, 5 mM sodium pyrophosphate, 1% (v/v) Triton X-100, cOmplete protease inhibitor cocktail). Lysates were clarified by centrifugation (16 000g, 3 min, 4°C), flash frozen in liquid N2 and stored at −80°C until analysis. For radioactive kinase assays, AMPK was immobilised on glutathione Sepharose 4B resin (GE Healthcare) by incubation with lysates for 1.5 h at 4°C. Following centrifugation (1000g, 3 min, 4°C), the resin was washed twice in purification buffer (50 mM HEPES pH 7.4, 150 mM NaCl, 10% (v/v) glycerol, 0.02% (v/v) Tween-20), once in 50 mM HEPES pH 7.4 with 0.02% (v/v) Tween-20, then resuspended to a 50% slurry with 50 mM HEPES pH 7.4 and 10 µl added to the activity assays. For in solution kinase assays, α1β1γ1 AMPK was eluted from glutathione-Sepharose by incubating with purification buffer supplemented with 40 mM reduced glutathione (Sigma–Aldrich).
AMPK activity was determined by phosphorylation of the SAMS peptide (Purar Chemicals, sequence: NH2-HMRSAMSGLHLVKRR-COOH) in a 25 µl reaction volume containing 100 µM SAMS peptide, 5 mM MgCl2, 200 µM ATP, [γ-^32P]-ATP (PerkinElmer) and assay buffer (50 mM HEPES pH 7.4, 1 mM DTT and 0.02% (v/v) Tween-20) and purified AMPK. Phosphotransferase activity was conducted at 30°C for 10 min and reactions were quenched by spotting 15 µl onto phosphocellulose ion-exchange chromatography paper (made in-house), followed by repeated washes in 1% H3PO4 (Merck Millipore). Ultima Gold liquid scintillation fluid (5 ml; PerkinElmer) was added to vials containing dried phosphocellulose papers, and the level of ^32P-transfer to the SAMS peptide was determined using a Tri-Carb 2900TR liquid scintillation counter (PerkinElmer).

T1 sequence (P54646 whole entry, the tested form may be a part): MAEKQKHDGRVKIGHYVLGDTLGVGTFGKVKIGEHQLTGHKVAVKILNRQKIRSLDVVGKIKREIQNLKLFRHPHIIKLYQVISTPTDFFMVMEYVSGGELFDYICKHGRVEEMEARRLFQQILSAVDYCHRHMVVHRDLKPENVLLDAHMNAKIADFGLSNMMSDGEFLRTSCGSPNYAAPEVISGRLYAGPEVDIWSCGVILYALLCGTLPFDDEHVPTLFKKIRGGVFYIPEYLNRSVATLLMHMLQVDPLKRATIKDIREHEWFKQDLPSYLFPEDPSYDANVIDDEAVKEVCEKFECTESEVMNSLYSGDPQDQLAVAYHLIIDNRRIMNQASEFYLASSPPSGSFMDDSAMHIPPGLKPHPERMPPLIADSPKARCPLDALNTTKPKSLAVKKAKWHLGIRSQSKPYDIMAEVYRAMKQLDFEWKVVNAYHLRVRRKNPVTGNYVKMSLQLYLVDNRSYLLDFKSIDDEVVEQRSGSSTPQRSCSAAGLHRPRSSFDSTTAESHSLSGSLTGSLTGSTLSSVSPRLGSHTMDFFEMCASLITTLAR
T1 sequence (O43741 whole entry, the tested form may be a part): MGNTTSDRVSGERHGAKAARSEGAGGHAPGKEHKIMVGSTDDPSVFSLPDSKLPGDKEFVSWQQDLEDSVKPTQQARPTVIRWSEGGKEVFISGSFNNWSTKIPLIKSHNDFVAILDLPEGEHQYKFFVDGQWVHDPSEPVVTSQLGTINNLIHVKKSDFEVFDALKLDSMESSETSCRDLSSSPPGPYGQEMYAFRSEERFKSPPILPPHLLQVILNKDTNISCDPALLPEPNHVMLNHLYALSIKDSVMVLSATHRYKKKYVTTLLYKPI
T1 sequence (P54619 whole entry partner, the tested form may be a part): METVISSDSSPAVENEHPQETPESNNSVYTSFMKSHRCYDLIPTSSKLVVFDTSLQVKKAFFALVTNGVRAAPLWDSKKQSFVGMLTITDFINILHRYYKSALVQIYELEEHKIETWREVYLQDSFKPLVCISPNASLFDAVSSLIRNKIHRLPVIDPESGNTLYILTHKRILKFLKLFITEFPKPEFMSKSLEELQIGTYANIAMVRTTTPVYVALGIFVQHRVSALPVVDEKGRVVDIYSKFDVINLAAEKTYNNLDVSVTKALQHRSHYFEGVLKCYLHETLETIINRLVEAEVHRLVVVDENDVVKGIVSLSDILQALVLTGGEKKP
T2 sequence (P54646 whole entry, the tested form may be a part): as the sequence (P54646 whole entry, the tested form may be a part) above
T2 sequence (Q9Y478 whole entry, the tested form may be a part): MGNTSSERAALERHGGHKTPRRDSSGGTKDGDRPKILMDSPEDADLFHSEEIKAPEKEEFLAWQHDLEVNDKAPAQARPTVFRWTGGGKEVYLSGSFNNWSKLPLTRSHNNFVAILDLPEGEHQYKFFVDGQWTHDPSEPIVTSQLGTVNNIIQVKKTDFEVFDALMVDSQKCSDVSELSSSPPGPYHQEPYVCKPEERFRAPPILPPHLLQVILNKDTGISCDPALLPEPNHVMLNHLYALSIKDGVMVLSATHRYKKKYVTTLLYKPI
T2 sequence (P54619 whole entry partner, the tested form may be a part): as the sequence (P54619 whole entry partner, the tested form may be a part) above
T3 sequence (Q13131 whole entry, the tested form may be a part): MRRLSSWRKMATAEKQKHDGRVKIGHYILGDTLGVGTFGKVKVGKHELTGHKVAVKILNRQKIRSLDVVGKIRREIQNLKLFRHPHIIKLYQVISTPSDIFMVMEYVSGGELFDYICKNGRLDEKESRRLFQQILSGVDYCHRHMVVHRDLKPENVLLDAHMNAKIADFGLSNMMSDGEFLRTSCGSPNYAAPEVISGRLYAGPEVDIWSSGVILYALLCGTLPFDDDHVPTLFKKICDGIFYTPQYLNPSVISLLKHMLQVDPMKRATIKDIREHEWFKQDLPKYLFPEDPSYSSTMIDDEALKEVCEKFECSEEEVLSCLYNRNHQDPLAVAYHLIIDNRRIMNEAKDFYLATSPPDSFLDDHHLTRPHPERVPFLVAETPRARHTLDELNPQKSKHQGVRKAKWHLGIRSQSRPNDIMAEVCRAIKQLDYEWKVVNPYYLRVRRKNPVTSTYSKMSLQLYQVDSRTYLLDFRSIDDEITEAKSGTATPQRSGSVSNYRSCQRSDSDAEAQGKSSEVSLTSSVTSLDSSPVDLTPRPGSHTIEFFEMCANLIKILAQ
T3 sequence (O43741 whole entry, the tested form may be a part): as the sequence (O43741 whole entry, the tested form may be a part) above
T3 sequence (P54619 whole entry partner, the tested form may be a part): as the sequence (P54619 whole entry partner, the tested form may be a part) above
T4 sequence (Q13131 whole entry, the tested form may be a part): as the sequence (Q13131 whole entry, the tested form may be a part) above
T4 sequence (Q9Y478 whole entry, the tested form may be a part): as the sequence (Q9Y478 whole entry, the tested form may be a part) above
T4 sequence (P54619 whole entry partner, the tested form may be a part): as the sequence (P54619 whole entry partner, the tested form may be a part) above

| Max. fold activation (human GST-AMPK α2β2γ1) | EC50 (human GST-AMPK α2β2γ1) | Max. fold activation (human GST-AMPK α2β1γ1) | EC50 (human GST-AMPK α2β1γ1) | Max. fold activation (human GST-AMPK α1β2γ1) | EC50 (human GST-AMPK α1β2γ1) | Max. fold activation (human GST-AMPK α1β1γ1) | EC50 (human GST-AMPK α1β1γ1) | fold AMPK activation relative to vehicle (human GST-AMPK α1β1γ1; 1 µM compound) | Structure (SMILES) |
| --- | --- | --- | --- | --- | --- | --- | --- | --- | --- |
| 5.8 fold | 5600 nM | 7.8 fold | 3250 nM | 4.4 fold | 2180 nM | 2.2 fold | 1210 nM |  | O[C@@H]1CO[C@H]2[C@@H]1OC[C@H]2Oc1nc2nc(-c3ccc(-c4ccccc4)cc3)c(Cl)cc2[nH]1 [MK-8722, reference compound] |
| 4.0 fold | 473 nM | 7.5 fold | 553 nM | 2.3 fold | 249 nM | 3.1 fold | 140 nM | > 2.2 fold | CC(=O)NC1CC=C(c2ccc(-c3nc4nc(Oc5ccc(C)c(C(=O)O)c5)[nH]c4cc3Cl)cc2)CC1 (centres unmarked) [MSG011, 5-((5-(4′-Acetamido-2′,3′,4′,5′-tetrahydro-[1,1′-biphenyl]-4-yl)-6-chloro-1H-imidazo[4,5-b]pyridin-2-yl)oxy)-2-methylbenzoic acid] |
